Data taken from publication PMC7222207, “Characterization of a CholesteroNitrone (ISQ-201), a Novel Drug Candidate for the Treatment of Ischemic Stroke” (Antioxidants, 2020).

Key:
[1] = test system: transient forebrain ischemia; experiment: Global cerebral ischemia (4VO), neurological deficit score (NDS); assay type: in vivo, male Wistar rats; settings: evaluated at 5 days
Method: Transient forebrain ischemia was induced in adult male Wistar rats (10–12 weeks, Charles River) by the standard four-vessel occlusion model (4VO) described previously. Briefly, both vertebral arteries were irreversibly occluded by electrocoagulation under anesthesia, with a mixture of atropine, ketamine, and diazepam (0.25, 62.5, and 5 mg/kg, respectively) delivered through intraperitoneal injection. After 24 h, ischemia was induced by carotid occlusion with atraumatic clips, for 15 min, and then the clips were removed from the carotid arteries to allow reperfusion. Body temperature was maintained at 37 °C during the surgical procedure. The animals were studied after 5 days of reperfusion (R5d) after which they were sacrificed. Sham control animals were prepared in the same way, without carotid occlusion. We performed a power analysis (http://www.biomath.info/power/ttest.htm) to determine the sample size. Significance level and statistical power were set at 0.05 and 0.8 (80%), respectively, which afforded a sample size of <6 subjects per group. […]
Neurological deficits in rats subjected to global cerebral ischemia were blindly evaluated after 5 days of reperfusion (R5d). […]
In order to quantify potential functional impairments, the general state of the animals was assessed. […]

[2] = test system: lipid peroxidation and ROS levels; design: method as in PMID 26241908; settings: preliminary results; cited from earlier work
[3] = test system: transient middle cerebral artery occlusion; experiment: Transient focal cerebral ischemia (tMCAO), grip strength test; assay type: in vivo, male C57BL/6 mice; settings: mice, 0.05 mg/kg or 0.1 mg/kg ip at onset of reperfusion, 24 and 48 h after treatment
Method: Transient occlusion of the distal branch of the middle cerebral artery (tMCAO) was induced in male C57BL/6 mice (9–11 weeks old, Charles River), as described previously. Mice were anesthetized with 4% isoflurane for induction and 1.5–2% isoflurane for maintenance (in 79% N2/21% O2). After drilling a small hole on the temporal bone at the level of the distal portion of the middle cerebral artery (MCA), the artery was compressed for 60 min, with a 30-G needle by using a micromanipulator. Body temperature was maintained between 36.5–37.5 °C and cerebral blood flow was monitored using laser-Doppler flowmetry to confirm MCA occlusion. Buprenorphine (0.05–0.1 mg/kg) was administered subcutaneously immediately before the procedure. A total of 33 mice were subjected to tMCAO, according to the study design. A power analysis was performed to determine the sample size (significance level set at 0.05, and the power set at 0.8 (80%)), which identified the need for 8 mice to be included in each experimental group. […]
Neurobehavioral studies were performed to evaluate ischemic outcomes and monitor motor function after focal ischemia. […] A total of six trials were conducted for each test and the strength value (expressed in grams) was calculated as the mean of all six trials.

[4] = test system: transient forebrain ischemia, hippocampal CA1 and cortical neurons; experiment: Global cerebral ischemia (4VO), neuronal death by Fluoro-Jade B staining; assay type: in vivo, male Wistar rats; settings: for maximum neuroprotection (Emax), neuronal death assay: iv at reperfusion onset
Method: Transient forebrain ischemia was induced in adult male Wistar rats (10–12 weeks, Charles River) by the standard four-vessel occlusion model (4VO) described previously. Briefly, both vertebral arteries were irreversibly occluded by electrocoagulation under anesthesia, with a mixture of atropine, ketamine, and diazepam (0.25, 62.5, and 5 mg/kg, respectively) delivered through intraperitoneal injection. After 24 h, ischemia was induced by carotid occlusion with atraumatic clips, for 15 min, and then the clips were removed from the carotid arteries to allow reperfusion. Body temperature was maintained at 37 °C during the surgical procedure. The animals were studied after 5 days of reperfusion (R5d) after which they were sacrificed. Sham control animals were prepared in the same way, without carotid occlusion. We performed a power analysis (http://www.biomath.info/power/ttest.htm) to determine the sample size. Significance level and statistical power were set at 0.05 and 0.8 (80%), respectively, which afforded a sample size of […] subjects per group. The treatments were administered with concealed allocation, and in randomized order, according to a computer-generated randomization program. Ischemic animals were treated with a vehicle solution (saline/ethanol, 90:10 vol/vol) or nitrone ISQ-201, dissolved in a vehicle solution through a single intravenous tail injection, when the carotid arteries were unclamped for reperfusion. In therapeutic window experiments, the animals were treated once at the reperfusion onset or at the set reperfusion time points, after ischemia. For the administration, at 6 h and 48 h of reperfusion after ischemia, the animals were anesthetized with isoflurane for 2–3 min and 5 min, respectively, prior to the treatment administration. An independent researcher prepared the treatments for each animal, according to the randomization schedule. Data of each experimental group were normalized to each vehicle control group. All procedures associated with animal experiments were approved by the Animal Care Ethics Committee of the Hospital Universitario Ramón y Cajal (Madrid, Spain, code no. 06/2015) and were performed according to the ARRIVE guidelines.
After 5 days of reperfusion (R5d), the animals were euthanized by transcardiac perfusion, under deep anesthesia. […]
Brain cryosections (10 µm thick) from ischemic animals reperfused for 5 days were used after fixation to detect neuronal death by Fluoro-Jade B staining, and visualized by fluorescence microscopy. Labeled (dead) neuronal cells (in green) were counted, as in TUNEL assay (see below). Data from different animals of each experimental group were independently analyzed by two observers, and treatment information was kept concealed throughout the study.

In the case of `CC(C)[C@H]1CC[C@H]2[C@@H]3CCC4=C/C(=[N+](\C)[O-])CC[C@]4(C)[C@H]3CC[C@]12C` [ISQ-201], the “neurological deficit score (NDS) vs vehicle” value ([1]; 0.05 mg/kg iv given after 48 h of reperfusion) is given as “could not improve”, the “neurological deficit score (NDS) vs vehicle” value ([1]; 0.05 mg/kg iv given between 0 and 6 h of post-reperfusion) is given as “improvement” and the “effect on lipid peroxidation and ROS levels” value [2] is given as “decreased”. For the same molecule, the “motor deficit (grip strength) vs vehicle” value [3] was “significant decrease”, the “neuronal death vs vehicle, therapeutic window” value ([4]; 0.05 mg/kg iv given between 0 and 6 h after reperfusion, CA1 and cortex, evaluated at 5 days) was “significantly decreased” and the “dead neuron number vs vehicle group” value ([4]; 0.05 and 0.1 mg/kg iv at reperfusion onset, CA1 and cortex, 5 days of reperfusion) was “significant reduction”. The “maximum neuroprotection (Emax), neuronal death assay” value ([4]; cortex, most potent concentration, 5 days of reperfusion, vs vehicle = 0%) was 80% and the “maximum neuroprotection (Emax), neuronal death assay” value ([4]; hippocampal CA1, most potent concentration, 5 days of reperfusion) was 31%.
